Test results taken from US20140343050A1, “PRODRUGS OF D-ISOGLUTAMYL-[D/L]-TRYPTOPHAN” (APTOEX TECHNOLOGIES, INC., priority 2011, published 2014).

Legend:
[1] = Pharmacokinetic study in rats, oral bioavailability (plasma Apo805); type: in vivo; conditions: male Sprague-Dawley rats, oral 5 mg/kg, in words
Description: Groups of five male Sprague-Dawley rats weighing 250 to 300 g were utilized per dosing group. One day prior to dosing, venous and arterial catheters (made of 20 cm long polyurethane coiled tubing, and filled with 100 units/mL heparinized saline) were implanted into the jugular vein and carotid artery of each rat. Rats were fasted overnight prior to oral dosing and fed approximately 2 hours post-dosing. All dosing and blood sampling was performed on fully conscious rats. Tested compounds were administered either by oral gavage as solutions in water, or by intravenous injection (Apo805K1 only) as solution in 0.9% sodium chloride, final pH 7.0, at doses equivalent to 5 mg/kg (per Apo805 content). Blood (0.3 mL) was sampled from each animal from the carotid artery for up to 30 hours post-dosing, each sampling followed by an equivalent naive-blood replacement. […]
A Sciex API 365 LC/MS/MS […] equipped with Ionics EP10+ and HSID, was used, A chiral column (Supelco-Astec CHIROBIOTIC™ TAG), 100×2.1 mm, 5 μm was used at ambient temperature. […] Samples were analysed for the concentration of Apo805 (thymodepressin).
Non-compartmental analysis was performed using WinNonlin 52 software, on individual animal data. Bioavailability was calculated as a ratio of AUCINF—D after oral dosing of test compound to AUCINF—D after IV dosing of Apo805K1. […]

human hepatocytes = experiment: Biotransformation to Apo805 in human hepatocytes; conditions: for Half-life for bioconversion to Apo805 (h), Human hepatocytes: 100 μM prodrug, pooled cryopreserved human hepatocytes
Description: LiverPool® cryopreserved human hepatocytes (pooled from 10 male donors) was obtained from Celsis In Vitro Technologies. The hepatocytes were stored in liquid nitrogen until used. Just before the assay, the hepatocytes were quickly thawed at 37° C. and centrifuged at 100×g for 10 min. The media was removed and cells were re-suspended in PBS at a density of 4×10^6 cells/mL. […] After 10, 20, 60, 120 and 240 min of incubation, the reaction was quenched by adding an equal volume of 5% (w/v) TCA. The “time 0” sample was generated by adding TCA before the test compound. After brief vortexing and 10-min incubation on ice, samples were centrifuged (16,000×g, 10 min) and the supernatants were analyzed by HPLC with UV detection.
(§1) HPLC analysis was done using an Agilent 1100 series HPLC system consisting of a programmable multi-channel pump, auto-injector, vacuum degasser and HP detector controlled by Agilent HPLC218 Chem Station Rev.A.09.03 software for data acquisition and analysis. A gradient method was used for the determination of all pro-drugs and their hydrolysis products including Apo805 on an Agilent Eclipse XDB, C18 column (part #963967-902, 150×4.6 mm, 3.5 μm) with the following chromatographic conditions: • Temperature: Ambient • Mobile phase: A=Aqueous phase: 10 mM Tris-HCl, 2 mM EDTA, pH 7.4 B=Organic phase: Acetonitrile • Gradient method: Time: 0 min 5% B, 25 min 50% B, 35 min 80% B, 45 min 5% B, 50 min 5% B. • Mobile phase flow rate: 1.0 mL/min • Injection volume: 50 μL • Data acquisition time: 30 min • Detection wavelength: 280 nm; 4 nm bandwidth, ref. 360 nm, • 4 nm bandwidth The chromatograms at λ=280 nm were analyzed. Peak area (mAU*s) was used for quantitation of pro-drugs, intermediates and thymodepressin (Apo805).

[2] = Stability / bioconversion to Apo805 in human blood; conditions: 100 μM prodrug, pooled human blood, 37° C.
Description: as §1
Blood was collected from healthy volunteers, both male and female, in Becton Dickinson ACD Vacutainer™ containing ACD solution A (22.0 g/L trisodium citrate, 8.0 g/L citric acid, 24.5 g/L dextrose). […] After 10-min incubation on ice, samples were centrifuged (16,000×g, 10 min) and the supernatants were analyzed by HPLC.

CC(C)(C)C(=O)OCOC(=O)[C@@H](Cc1c[nH]c2ccccc12)NC(=O)CC[C@@H](N)C(=O)O [Apo839, H-D-Glu(D-Trp-OCH2O—CO—C(CH3)3)—OH]
oral bioavailability in rats [1]: show oral bioavailability

N[C@H](CCC(=O)N[C@@H](Cc1c[nH]c2ccccc12)C(=O)O)C(=O)OCCC(F)(F)F [Apo886]
Half-life for bioconversion to Apo805 (h), Human hepatocytes (human hepatocytes): 4.6 h | Half-life for bioconversion to Apo805 (h), Human blood [2]: 5.9 h

CCOC(=O)[C@@H](Cc1c[nH]c2ccccc12)NC(=O)CC[C@@H](N)C(=O)O [Apo835, H-D-Glu(D-Trp-OEt)-OH, reference compound]
Half-life for bioconversion to Apo805 (h), Human hepatocytes (human hepatocytes): > 2.0 h | percent conversion to Apo805 within indicated time, Human hepatocytes (human hepatocytes; in 2 h): 11% | Half-life for bioconversion to Apo805 (h), Human blood [2]: >24 h

CC(OC(=O)OC1CCCCC1)OC(=O)[C@@H](Cc1c[nH]c2ccccc12)NC(=O)CC[C@@H](N)C(=O)O (stereo partly drawn) [Apo843, H-D-Glu(D-Trp-O—CH(CH3)—O—CO—O-cyclohexyl)-OH]
oral bioavailability in rats [1]: show oral bioavailability

CN(C)C(=O)COC(=O)[C@@H](Cc1c[nH]c2ccccc12)NC(=O)CC[C@@H](N)C(=O)O [Apo893, H-D-Glu(D-Trp-O—CH2CO—N(CH3)2)—OH]
biotransformation to thymodepressin (Apo805) in human hepatocytes (human hepatocytes; in words): not readily converted to thymodepressin
